Legend:
Aerobacter aerogenes = assay: agar plate paper-disc inhibition zone screening; type: cell-based; conditions: Klebsiella aerogenes, read-out: Inhibition Zone Diameter mm (Dose mg/ml) A. Aerogenes; for zone of inhibition at 500 µg/mL: Dose 0.5 mg/ml; for zone of inhibition at 1000 µg/mL: Dose 1.0 mg/ml
In short: (§1)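 Read-out: diameter (mm) of the inhibition zone around 12.7 mm paper discs after overnight (18-20 h) incubation at 37°C. Discs carried compound at 3,000-10 mcg/ml in alcohol, DMSO or DMF, final solvent <10%. Seeded agar trays used saline-suspended cells adjusted to 20-35% transmittancy.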

Bacillus subtilis = assay: agar plate paper-disc inhibition zone screening; type: cell-based; conditions: read-out: Inhibition Zone Diameter mm (Dose mg/ml) B. Subtilis; for zone of inhibition at 3000 µg/mL: Dose 3.0 mg/ml
In short: as §1

Escherichia coli = assay: agar plate paper-disc inhibition zone screening; type: cell-based; conditions: read-out: Inhibition Zone Diameter mm (Dose mg/ml) E. Coli; for zone of inhibition at 1000 µg/mL: Dose 1.0 mg/ml; for zone of inhibition at 500 µg/mL: Dose 0.5 mg/ml
In short: as §1

Streptococcus faecalis = assay: agar plate paper-disc inhibition zone screening; type: cell-based; conditions: Enterococcus faecalis, read-out: Inhibition Zone Diameter mm (Dose mg/ml) S. Faecalis; for zone of inhibition at 3000 µg/mL: Dose 3.0 mg/ml; for zone of inhibition at 500 µg/mL: Dose 0.5 mg/ml
In short: as §1

Penicillium avellaneum = assay: agar plate paper-disc inhibition zone screening; type: cell-based; conditions: Hamigera avellanea, read-out: Inhibition Zone Diameter mm (Dose mg/ml) P. Avellaneum; for zone of inhibition at 3000 µg/mL: Dose 3.0 mg/ml
In short: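 Mycelia and spores from a six-day 28°C agar culture, suspended in saline with 0.05% Tween 80 at 20% transmittancy, were seeded into molten agar trays. Compounds at 3,000, 1,000, 500, 100 and 10 mcg/ml (solvent <10%) were applied on 12.7 mm paper discs. After at least 20-24 h incubation, inhibition zone diameter was measured in mm.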

[1] = test system: lymphocytic leukemia P388; assay: in vivo lymphocytic leukemia P388 test; design: species or system mice; conditions: Mus musculus, P388, ip, 720 h, two single doses four days apart, read-out: T/C × 100 (Percent); for response vs control in vivo at 100 mg/kg: P388, Dose 100 mg/kg intraperitoneally; for response vs control in vivo at 50 mg/kg: P388, Dose 50 mg/kg intraperitoneally; for response vs control in vivo at 3.12 mg/kg: P388, Dose 3.12 mg/kg intraperitoneally; for response vs control in vivo at 6.25 mg/kg: P388, Dose 6.25 mg/kg intraperitoneally; for response vs control in vivo at 12.5 mg/kg: P388, Dose 12.5 mg/kg intraperitoneally; for response vs control in vivo at 25 mg/kg: P388, Dose 25 mg/kg intraperitoneally
In short: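 Efficacy was judged from the treated/control survival-time ratio over 30 days (T/C×100 >125% as criterion). Mice (CD2F, 6–7/group) received i.p. P388 ascites cells, then compound i.p. at varied doses twice, four days apart.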

L1210 Leukemia = assay: L1210 leukemia in vitro; type: cell-based; conditions: Mus musculus, procedure of Europ. J. Cancer 17, 671 (1981), read-out: L1210 Leukemia In Vitro ID50 Molar
[2] = test system: HCT-8 (human colon adenocarcinoma) cells; assay: in vitro activity against human colon adenocarcinoma (HCT-8), cell count; type: cell-based; conditions: Homo sapiens; HCT-8 cells, 60-65 hrs with compound; molar quantity of drug required to kill 50% of the tumor cells; read-out: ID50 Molar
In short: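 HCT-8 cells seeded at ~30,000 cells/ml in RPMI 1640 + 10% FCS, grown 48 hrs at 37°C, then exposed to compound 60-65 hrs. Lysed cells counted by Coulter counter; activity as percent of controls, reported as ID50 (molar quantity killing 50% of cells).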

Row | Structure (SMILES) | IC50 (L1210 Leukemia) [nM] | zone of inhibition at 500 µg/mL (Aerobacter aerogenes) [mm] | zone of inhibition at 3000 µg/mL (Streptococcus faecalis) [mm] | zone of inhibition at 3000 µg/mL (Penicillium avellaneum) [mm] | response vs control in vivo at 100 mg/kg [1] [%] | zone of inhibition at 1000 µg/mL (Aerobacter aerogenes) [mm] | zone of inhibition at 3000 µg/mL (Bacillus subtilis) [mm] | response vs control in vivo at 50 mg/kg [1] [%] | zone of inhibition at 1000 µg/mL (Escherichia coli) [mm] | zone of inhibition at 500 µg/mL (Streptococcus faecalis) [mm] | response vs control in vivo at 3.12 mg/kg [1] [%] | response vs control in vivo at 6.25 mg/kg [1] [%] | response vs control in vivo at 12.5 mg/kg [1] [%] | response vs control in vivo at 25 mg/kg [1] [%] | IC50 [2] [nM] | zone of inhibition at 500 µg/mL (Escherichia coli) [mm] | further results
1 | CN(C)CCNc1ccc2c3c(nn2CCNCCO)-c2ccccc2C(=O)c13 [Example 25, 2-[2-[(2-Hydroxyethyl)amino]ethyl]-5-[[2-(dimethylamino)ethyl]amino]anthra[1,9-cd]pyrazol-6(2H)-one] |  | 16 |  | 0 |  |  |  |  | 15 | 15 | 158 | 163 | 166 | 162 | 230 |  | zone of inhibition at 500 µg/mL (Bacillus subtilis; Dose 0.5 mg/ml): 20 mm
2 | CCN(CC)CCn1nc2c3c(c(NCCN4CCOCC4)ccc31)C(=O)c1ccccc1-2 [Example 4] |  |  |  |  | 145 | 15 |  |  | 14 | 14 |  |  |  |  | 120 |  | zone of inhibition at 1000 µg/mL (Bacillus subtilis; Dose 1.0 mg/ml): 25 mm; zone of inhibition at 1000 µg/mL (Penicillium avellaneum; Dose 1.0 mg/ml): 14 mm; response vs control in vivo at 400 mg/kg ([1]; P388, Dose 400 mg/kg intraperitoneally): 211%
3 | NCCn1nc2c3c(c(NCCNCCO)ccc31)C(=O)c1ccccc1-2 [Example 27, 2-(2-Aminoethyl)-5-[[2-[(2-hydroxyethyl)amino]ethyl]amino]anthra[1,9-cd]pyrazol-6(2H)-one] |  |  | 0 | 0 |  |  | 14 |  |  |  | 149 | 158 | 173 | 187 | 68 | 14 | zone of inhibition at 100 µg/mL (Aerobacter aerogenes; Dose 0.1 mg/ml): 17 mm; response vs control in vivo at 1.56 mg/kg ([1]; P388, Dose 1.56 mg/kg intraperitoneally): 139%

More lines, main results first:

Row | IC50 (L1210 Leukemia) [nM] | Structure (SMILES) | zone of inhibition at 500 µg/mL (Aerobacter aerogenes) [mm] | zone of inhibition at 3000 µg/mL (Streptococcus faecalis) [mm] | zone of inhibition at 3000 µg/mL (Penicillium avellaneum) [mm] | response vs control in vivo at 100 mg/kg [1] [%] | zone of inhibition at 1000 µg/mL (Aerobacter aerogenes) [mm] | zone of inhibition at 3000 µg/mL (Bacillus subtilis) [mm] | response vs control in vivo at 50 mg/kg [1] [%] | zone of inhibition at 1000 µg/mL (Escherichia coli) [mm] | zone of inhibition at 500 µg/mL (Streptococcus faecalis) [mm] | response vs control in vivo at 3.12 mg/kg [1] [%] | response vs control in vivo at 6.25 mg/kg [1] [%] | response vs control in vivo at 12.5 mg/kg [1] [%] | response vs control in vivo at 25 mg/kg [1] [%] | IC50 [2] [nM] | zone of inhibition at 500 µg/mL (Escherichia coli) [mm] | further results
4 | 390 | O=C1c2ccccc2-c2nn(CCNCCO)c3ccc(Cl)c1c23 [H; Cl*; (CH2)2NH(CH2)2OH, 5-chloro-2-[2-[(2-hydroxyethyl)amino]ethyl]anthra[1,9-cd]pyrazol-6(2H)-one] | 18 | 15 | 0 | 124 |  |  |  |  |  |  |  |  |  |  |  | zone of inhibition at 100 µg/mL (Bacillus subtilis; Dose 0.1 mg/ml): 16 mm; zone of inhibition at 100 µg/mL (Escherichia coli; Dose 0.1 mg/ml): 16 mm
5 | 630 | NCCn1nc2c3c(c(Cl)ccc31)C(=O)c1c(O)ccc(O)c1-2 [7,10-(OH)2; Cl*; (CH2)2NH2, 2-(2-Aminoethyl)-5-chloro-7,10-dihydroxyanthra[1,9-cd]pyrazol-6(2H)-one] |  | 0 | 0 |  | 14 | 0 | 125 |  |  |  |  |  |  |  |  | zone of inhibition at 3000 µg/mL (Escherichia coli; Dose 3.0 mg/ml): 15 mm
6 | 660 | O=C1c2c(O)ccc(O)c2-c2nn(CCNCCO)c3ccc(Cl)c1c23 [7,10-(OH)2; Cl*; (CH2)2NH(CH2)2OH, 5-Chloro-7,10-dihydroxy-2-[2-[(2-hydroxyethyl)amino]ethyl]anthra[1,9-cd]pyrazol-6(2H)-one] |  | 0 | 0 |  | 14 | 0 | 161 |  |  |  | 131 | 138 | 143 |  | 14 | 

Source: patent EP0103381B1, “Substituted anthra(1,9-cd)pyrazol-6(2H)-ones” (WARNER-LAMBERT COMPANY, priority 1982, dated 1984)
